# Marks after values point to notes of the source that are not given here.
# Experiments:
# [1] = Biodistribution in NMRI mice; assay type: in vivo; settings: for activity in carcass / activity in intestines with content / uptake in blood / uptake in kidney / uptake in liver / uptake in lung / uptake in salivary glands / uptake in spleen / uptake in stomach: 40 pmol/mouse iv
# Experimental: Four NMRI mice were intravenously injected with 40 pmol of the radiotracer (60 kBq, the mass of the injected compound was adjusted with an unlabeled tracer). The mice were euthanized with a lethal intraperitoneal injection of ketamine/xylazine, followed by exsanguination at 3 and 24 h post-injection (pi). The organs of interest were collected, weighed, and measured for their activity content using a gamma counter. The uptake activity in organs was calculated as the percentage of injected activity per gram (%IA/g) for the blood, salivary glands, lungs, liver, spleen, stomach, and kidneys and as %IA for the remaining carcass and the rest of the intestines with content.
# PSMA [2] = biological target: T1, PSMA (Homo sapiens, UniProt Q04609); test: Real-time binding kinetics on living PC3-pip cells (LigandTracer Yellow); settings: 5 nM tracer, 1:2 interaction model
# T1 construct: expressed in transfected cells; host or cells: PC3-pip cells (from Prof. Martin G. Pomper, Johns Hopkins University)
# Experimental: The binding kinetics of [^99mTc]Tc-labeled BQ0411, BQ0412, and BQ0413 were measured in real time using LigandTracer Yellow Instruments (Ridgeview Instruments AB, Uppsala, Sweden) on PC3-pip cells, as described earlier. The activity binding was recorded at 5 nM on the radiolabeled tracers for 150 min. After measuring the binding kinetics, the medium containing the labeled tracer was replaced with fresh medium, and the dissociation was monitored over 7 h. […]
# [3] = Stability of the [99mTc]Tc-maG3 complex in PBS and under cysteine challenge (radio-HPLC); assay type: physicochemical
# Experimental: The iTLC data were cross-validated using radio-HPLC analysis, performed using a Hitachi Chromaster HPLC system with a radioactivity detector and Phenomenex Luna® C18 column (100 Å; 150 × 4.6 mm; 5 µm) at room temperature (20 °C), in the following conditions: solvent A: 0.1% trifluoroacetic acid (TFA) in H2O, solvent B: 0.1% TFA in acetonitrile, flow rate: 1 mL/min. For identity and purity analysis of [^99mTc]Tc-BQ0411 and [^99mTc]Tc-BQ0412, the method with a gradient from 5 to 60% solvent B over 20 min was used.
# To evaluate the chemical stability of the [^99mTc]Tc-maG3 complex, fractions of radiolabeled conjugates (10 µL, 0.25 µg) were incubated with a 300× molar excess of cysteine or with PBS at room temperature for 1 h. The test was run in triplicate.
# [4] = tested on: PSMA-expressing prostate cancer xenografts (PC3-pip); test: Biodistribution and tumor targeting in PC3-pip tumor-bearing mice; assay type: in vivo, BALB/c nu/nu mice; settings: 3 h pi
# Experimental: PSMA-expressing prostate cancer xenografts were implanted in BALB/c nu/nu mice by subcutaneous injection of PC3-pip cell suspension in PBS (10^7 cells/animal in 100 µL). The average tumor weight was 0.3 ± 0.2 g at the time of the experiment. Four mice per data point were used. Mice were intravenously injected with 5 nmol of the radiotracer (60 kBq, the mass of the injected compound was adjusted with an unlabeled tracer). The mice were euthanized 3 h pi, and the samples were treated as described above.
# PC3-pip cells = test: Cellular processing (internalization) during continuous incubation; assay type: cell-based; settings: 2 nM, 37 °C
# Experimental: To evaluate the cellular processing of [^99mTc]Tc-labeled BQ0411 and BQ0412, PC3-pip cells were incubated with the radiolabeled tracer (2 nM), and at predetermined time points (1, 2, 4, and 8 h), cells were treated with 0.5 mL of 4 M urea solution in a 0.2 M glycine buffer, pH 2.5, for 5 min on ice. After that, the acidic supernatant was collected, and this fraction was considered to be the membrane-bound activity. To lyse the cells, 0.5 mL of 1 M sodium hydroxide solution was added and incubated at 37 °C for at least 20 min. The alkaline-containing solution was collected, and the basic fraction was considered to be the internalized activity.
# [5] = Octanol/water distribution coefficient (LogD); assay type: physicochemical; settings: n-octanol / Milli-Q water
# Experimental: The LogD was determined experimentally based on the procedure described earlier. Briefly, the radiolabeled compound of interest was added to a LoBind Eppendorf tube (Eppendorf, Hamburg, Germany) containing Milli-Q water (500 μL) and n-octanol (500 μL), and the mixture was vortexed and centrifuged. Thereafter, three fractions from each phase were collected and the activity was measured using a gamma counter. The LogD was calculated by dividing the average activity measured in octanol by the average activity measured in water.
# PSMA [6] = biological target: T1, PSMA; test: In vitro binding specificity (saturation with non-labeled PSMA-11) on PC3-pip cells; settings: 2 nM tracer, 250-fold molar excess of PSMA-11, 1 h, 37 °C
# Experimental: For the in vitro binding specificity test, approximately 8 × 10^5 of PC3-pip cells per well were seeded in 6-well plates 24 h before the experiment. Cells in three control wells were pre-saturated with a 250-fold excess of non-labeled PSMA-11 15 min before the addition of radiotracers, while the second set was treated with complete media. After 15 min of incubation at room temperature, [^99mTc]Tc-labeled radioligands were added to all wells to reach a concentration of 2 nM. After one hour of incubation at 37 °C, the cells were washed with PBS solution, detached, and collected. Cell-associated activity was measured using a gamma counter and presented as the percentage of added activity.
# T1 sequence (Q04609 whole entry): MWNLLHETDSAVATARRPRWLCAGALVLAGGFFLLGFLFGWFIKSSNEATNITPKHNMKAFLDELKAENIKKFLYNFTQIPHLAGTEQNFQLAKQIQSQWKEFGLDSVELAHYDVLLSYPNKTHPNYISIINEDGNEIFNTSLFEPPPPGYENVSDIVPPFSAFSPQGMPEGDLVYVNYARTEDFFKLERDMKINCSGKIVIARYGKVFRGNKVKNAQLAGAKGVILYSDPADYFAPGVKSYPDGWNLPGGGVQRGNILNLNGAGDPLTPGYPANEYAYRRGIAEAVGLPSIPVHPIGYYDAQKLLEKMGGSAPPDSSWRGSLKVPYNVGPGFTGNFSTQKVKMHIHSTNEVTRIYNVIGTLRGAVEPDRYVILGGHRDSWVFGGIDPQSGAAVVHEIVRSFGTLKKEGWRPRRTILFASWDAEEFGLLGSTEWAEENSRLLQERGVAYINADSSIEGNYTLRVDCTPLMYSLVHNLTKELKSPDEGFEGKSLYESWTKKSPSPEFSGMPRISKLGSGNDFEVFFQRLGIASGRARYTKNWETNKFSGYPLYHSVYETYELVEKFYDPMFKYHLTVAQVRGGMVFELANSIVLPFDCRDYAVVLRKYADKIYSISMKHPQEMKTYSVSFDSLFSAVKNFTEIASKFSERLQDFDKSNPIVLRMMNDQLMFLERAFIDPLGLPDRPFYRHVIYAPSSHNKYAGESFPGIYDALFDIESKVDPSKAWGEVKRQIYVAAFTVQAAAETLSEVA
smiles,measurement,setting,value
CC(=O)N[C@@H](CCCCNC(=O)C[N]1C(=O)C[N]2C(=O)C[N]3C(=O)C[S][99Tc-]132=[O])C(=O)NCCCCCCCC(=O)N[C@@H](Cc1ccc(O)cc1)C(=O)N[C@@H](Cc1ccc2ccccc2c1)C(=O)NCCCC[C@H](NC(=O)N[C@@H](CCC(=O)O)C(=O)O)C(=O)O [[^99mTc]Tc-BQ0412],activity in carcass,[1]; 3 h pi,"2.9 ± 0.1 *^,c %IA/sample"
same,activity in intestines with content,[1]; 3 h pi,"70 ± 7 *^,c %IA/sample"
same,uptake in blood,[1]; 3 h pi,0.5 ± 0.1 %IA/g
same,uptake in kidney,[1]; 3 h pi,"56 ± 9 *^,c %IA/g"
same,uptake in liver,[1]; 3 h pi,"3 ± 1 *^,c %IA/g"
same,uptake in lung,[1]; 3 h pi,"0.3 ± 0.1 *^,c %IA/g"
same,uptake in salivary glands,[1]; 3 h pi,"0.24 ± 0.03 *^,c %IA/g"
same,uptake in spleen,[1]; 3 h pi,"0.23 ± 0.07 *^,c %IA/g"
same,uptake in stomach,[1]; 3 h pi,"0.17 ± 0.03 *^,c %IA/g"
same,activity in carcass,[1]; 24 h pi,0.12 ± 0.03 ^c %IA/sample
same,activity in intestines with content,[1]; 24 h pi,0.16 ± 0.04 ^c %IA/sample
same,uptake in blood,[1]; 24 h pi,0.016 ± 0.002 ^c %IA/g
same,uptake in kidney,[1]; 24 h pi,1.1 ± 0.3 ^c %IA/g
same,uptake in liver,[1]; 24 h pi,0.016 ± 0.004 ^c %IA/g
same,uptake in lung,[1]; 24 h pi,0.014 ± 0.008 ^c %IA/g
same,uptake in salivary glands,[1]; 24 h pi,0.015 ± 0.006 ^c %IA/g
same,uptake in spleen,[1]; 24 h pi,0.007 ± 0.005 %IA/g
same,uptake in stomach,[1]; 24 h pi,0.07 ± 0.05 ^c %IA/g
same,"uptake in intestines with content, fold higher than [99mTc]Tc-BQ0411",[1]; 3 h pi,1.6 fold
same,"uptake in kidneys, fold lower than [99mTc]Tc-BQ0411",[1]; 3 h pi,2.3 fold
same,activity remaining in the body,"[1]; 3 h pi, excluding activity in the intestines with content",20–30 % from injected
same,washout of activity from kidneys,[1]; 24 h pi compared to 3 h pi,98%
same,ka1,PSMA [2],31000 M⁻¹ s⁻¹
same,ka2,PSMA [2],46000 M⁻¹ s⁻¹
same,kd1,PSMA [2],1.4e-05 s⁻¹
same,kd2,PSMA [2],1.6e-05 s⁻¹
same,release of activity under cysteine challenge,"[3]; 300-fold molar excess of cysteine, room temperature, 1 h",around 60%
same,stability during incubation in PBS,"[3]; PBS, room temperature, 1 h",stable
same,"share of activity in radio-HPLC peak, retention time 6.2 min","[3]; cysteine challenge, radiolabeled product, speculated Tc–cysteine complex",32.5%
same,"share of activity in radio-HPLC peak, retention time 14.1 min","[3]; cysteine challenge, radiolabeled product, speculated intermediate transchelation product",25.5%
same,activity in carcass,[4]; 5 nmol/mouse iv,2.6 ± 1.3 %IA/sample
same,activity in intestines with content,[4]; 5 nmol/mouse iv,69 ± 17 ^c %IA/sample
same,uptake in blood,[4]; 5 nmol/mouse iv,0.5 ± 0.1 %IA/g
same,uptake in bone,[4]; 5 nmol/mouse iv,0.15 ± 0.07 %IA/g
same,uptake in kidney,[4]; 5 nmol/mouse iv,16 ± 5 %IA/g
same,uptake in liver,[4]; 5 nmol/mouse iv,0.5 ± 0.1 %IA/g
same,uptake in lung,[4]; 5 nmol/mouse iv,0.5 ± 0.1 %IA/g
same,uptake in muscle,[4]; 5 nmol/mouse iv,0.2 ± 0.1 %IA/g
same,uptake in pancreas,[4]; 5 nmol/mouse iv,0.4 ± 0.3 %IA/g
same,uptake in salivary glands,[4]; 5 nmol/mouse iv,0.2 ± 0.1 ^c %IA/g
same,uptake in small intestine,[4]; 5 nmol/mouse iv,1.2 ± 0.7 ^c %IA/g
same,uptake in spleen,[4]; 5 nmol/mouse iv,0.6 ± 0.3 %IA/g
same,uptake in stomach,[4]; 5 nmol/mouse iv,0.3 ± 0.2 %IA/g
same,uptake in tumor,[4]; 5 nmol/mouse iv,17 ± 5 %IA/g
same,tumor-to-blood ratio,[4]; 5 nmol/mouse,35 ± 4 ^c
same,tumor-to-bone ratio,[4]; 5 nmol/mouse,128 ± 38
same,tumor-to-kidney ratio,[4]; 5 nmol/mouse,1.1 ± 0.1
same,tumor-to-liver ratio,[4]; 5 nmol/mouse,35 ± 5 ^c
same,tumor-to-lung ratio,[4]; 5 nmol/mouse,39 ± 6
same,tumor-to-muscle ratio,[4]; 5 nmol/mouse,143 ± 58 ^c
same,tumor-to-pancreas ratio,[4]; 5 nmol/mouse,82 ± 33
same,tumor-to-salivary ratio,[4]; 5 nmol/mouse,90 ± 16 ^c
same,tumor-to-small intestine ratio,[4]; 5 nmol/mouse,19 ± 9 ^c
same,tumor-to-spleen ratio,[4]; 5 nmol/mouse,26 ± 6
same,tumor-to-stomach ratio,[4]; 5 nmol/mouse,77 ± 29
same,activity uptake in the gastrointestinal tract (with content),[4],over 40 %IA
same,internalized activity (of cell-associated activity),PC3-pip cells; 4 h of continuous incubation,43 ± 1%
same,internalized activity (of cell-associated activity),PC3-pip cells; after 4 h (8 h of continuous incubation),32 ± 1%
same,logD (octanol–water distribution coefficient),[5],−2.3 ± 0.1
same,binding to PC3-pip cells after pre-treatment with excess non-labeled PSMA-11,PSMA [6],significantly (p ˂ 0.0001) decreased

# — paper PMC11011439, “Influence of Molecular Design on the Tumor Targeting and Biodistribution of PSMA-Binding Tracers Labeled with Technetium-99m” (International Journal of Molecular Sciences, 2024)
